Source: US8642834B2, “Methods for the identification of agents that inhibit mesenchymal-like tumor cells or their formation” (OSI Pharmaceuticals, LLC, priority 2009, dated 2014)

What was measured:
CFPAC1 cells = assay: 2D immunofluorescence of E-cadherin and vimentin; assay type: cell-based, human; details: cells treated 7 days with ligand, compared to untreated cells
Experimental: Cells were plated on coverslips and stimulated with ligand the following day (day 0). On day 4, medium and ligands were refreshed. After 7 days, the cells were fixed in 4% paraformaldehyde (EMS#15701)/PBS (Gibco #14190) for 10 minutes at room temperature, and then permeabilized in 0.1% Triton X-100 (Sigma #P1379)/PBS for 10 minutes. Cells were blocked in 3% BSA/PBS for one hour and incubated in primary antibody solution (E-cadherin, Santa Cruz #sc21791 and Vimentin, Chemicon #AB5733 in blocking buffer) for two hours at room temperature. Cells were washed in PBS and incubated in secondary antibody (Invitrogen #A11029 and Chemicon #AP194R) for one hour followed by nuclear counterstain TO-PRO3 (Invitrogen #T3605). Coverslips were mounted on slides with Pro-Long Gold antifade reagent (Invitrogen P36934). Images were captured on a Leica DMRXE microcope with SP2 scanner using Leica Confocal Software.

CFPAC-1 cells = assay: Induction of EMT by growth factors and cytokines, E-cadherin and vimentin immunoblotting; assay type: cell-based, human; details: CFPAC-1 cells treated 7 days with ligand
Experimental: The CFPAC1 cell line was cultured in DMEM media (Gibco #11960) supplemented with 10% FBS (Sigma), 2 mM L Glutamine (Gibco), at 37° C., 5% CO2. For 7 day treatments, cells were seeded on tissue culture plastic in complete growth media and allowed to attach overnight at cell densities that would provide approximately 60-80% confluence at end of experiment. Ligand and/or inhibitor was added the following day (Day 0) in complete growth media and incubated at 37° C., 5% CO2. Ligand source and concentrations used are as follows: [1] From R&D systems, SDF-1α (stromal derived factor-1 alpha) at 100 ng/ml, TRANCE (TNF-related activation induced cytokine) at 50 ng/ml, FGF1 (fibroblast growth factor acidic) at 10 ng/ml, FGF2 (fibroblast growth factor basic) at 10 ng/ml, BMP4 (bone morphogenetic protein 4) at 100 ng/ml, BMP7 (bone morphogenetic protein 7) at 100 ng/ml, IGF2 (insulin-like growth factor 2) at 100 ng/ml, OSM (Oncostatin M) at 100 ng/ml, NRG1 (Neuregulin-1) at 50 ng/ml, PDGFaa (Platelet derived growth factor a) at 50 ng/ml, PDGFbb (platelet derive growth factor b) at 30 ng/ml, Ang2 (Angiopoeitin 2) at 400 ng/ml, amphiregulin at 100 ng/ml, HMGB 1 (Human high-mobility group box 1 protein) at 50 ng/ml; [2] From Genscript, LIF (Leukemia inhibitory factor) at 20 ng/ml, GM-CSF (Granulocyte macrophage colony stimulating factor) at 25 ng/ml, M-CSF (Macrophage colony stimulating factor) at 50 ng/ml; [3] From Anaspec, PAR1 (Protease activated receptor 1 agonist) at 100 μM; PAR2 (Protease activated receptor 2 agonist; peptide SLIGKV-NH2, Cat. No. 60217-1) at 100 μM; PAR4 (Protease activated receptor […] agonist; peptide AYPGKF-NH2, Cat. No. 60218-1) at 100 μM; [4] From Peprotech, HGF (Hepatocyte Growth Factor) at 100 ng/ml; IL-31 (Interleukin-31) at 50 ng/ml, IL-33 (Interleukin-33) at 50 ng/ml, IL1-a (Interleukin-1 alpha) at 10 ng/ml, CTGF (Connective tissue growth factor) at 20 ng/ml, WISP1 (Wnt-1 inducible signaling pathway protein) at 20 ng/ml, PTHrP ([…] hormone-related protein) at 50 ng/ml, MCP1 (monocyte chemotactic protein-1) at 50 ng/ml; and [5] from Sigma, Fulvestrant at 1 μM. Fresh medium containing ligand and/or inhibitor was added 3-4 days after initial dose, and at Day 7 cells were harvested for western blot analysis.
Cells were harvested by washing once with PBS, and lysing on ice for 10 minutes with scraping (using a Cell Lifter, Corning Inc. #3008) in ice cold RIPA buffer (Sigma R0278) containing Protease inhibitor (Sigma P8340), Phosphatase inhibitors (Sigma P2850, P5726) and 200 μM Sodium Vanadate. Supernatents were micro-centrifuged at max speed, 4° C. for 10 minutes. Protein content was quantitated using the BCA method (Pierce #23225) and samples were normalized to total protein in Laemli buffer and heated at 100° C. for 10 minutes. SDS PAGE was run using a Bis-Tris gel system (Invitrogen NuPAGE) with MOPS buffer (Invitrogen NP0001), transferred onto nitrocellulose using the iBLOT system (Invitrogen) and blocked in PBS-T (0.1% Tween 20), 5% non-fat milk or BSA in guidance with primary Ab supplier requirements. All primary antibodies were incubated overnight at 4° C. in PBS-T (0.1% Tween 20) in either 5% non-fat milk or BSA, diluted to the following working dilutions: anti E Cadherin (Santa Cruz #sc-21791) 1:500 dilution; anti Vimentin (BD Biosciences #550513) 1:2000 dilution;); anti GAPDH HRP conjugate (Santa Cruz sc-25778) 1:1000 dilution; anti β-Actin (Sigma, A5441) 1:10,000 dilution. […]

HGF: Hepatocyte Growth Factor from Peprotech, used at 100 ng/ml
E-cadherin and vimentin staining (CFPAC1 cells): strong vimentin staining with no E-cadherin | Induction of EMT (E-cadherin down, vimentin up) (CFPAC-1 cells): most complete EMT
